The test deals with T1, tyrosine hydroxylase (Mus musculus, UniProt P24529).
T1 construct: from tissue; host or cells: living mice
Description: In vivo inhibition of tyrosine hydroxylase (cortical norepinephrine levels in mice, HPLC with electrochemical detection). As to conditions: mice injected intraperitoneally; cerebral cortices removed six hours later; norepinephrine in tissue; dose not given; control 198.2 +/- 18.4 ng/g. On the procedure:
The tyrosine hydroxylase inhibitory properties of the compounds of this invention can readily be determined by standard and well known procedures. For example, determination of tyrosine hydroxylase inhibition is exemplified by a procedure wherein mice are injected intraperitoneally with a test compound, and six hours later the mice are sacrificed, the cerebral cortices removed and frozen on dry ice. The levels of norepinephrine in the tissue are measured by HPLC with electrochemical detection, according to the process of Dudley, et al, J. Pharmacol. Exp. Ther., 217, 834-840 (1981). Reduction in cortical norepinephrine levels indicates effective, in vivo inhibition of tyrosine hydroxylase. The following Table I illustrates the decreased levels of norepinephrine after treatment with a compound of this invention (2-fluoromethyl tyrosine) in relation to levels of norepinephrine present after treatment with a known inhibitor (alpha-methyl-p-tyrosine), and as compared to the amount of norepinephrine produced without treatment with a test compound (control).

T1 sequence (P24529 whole entry): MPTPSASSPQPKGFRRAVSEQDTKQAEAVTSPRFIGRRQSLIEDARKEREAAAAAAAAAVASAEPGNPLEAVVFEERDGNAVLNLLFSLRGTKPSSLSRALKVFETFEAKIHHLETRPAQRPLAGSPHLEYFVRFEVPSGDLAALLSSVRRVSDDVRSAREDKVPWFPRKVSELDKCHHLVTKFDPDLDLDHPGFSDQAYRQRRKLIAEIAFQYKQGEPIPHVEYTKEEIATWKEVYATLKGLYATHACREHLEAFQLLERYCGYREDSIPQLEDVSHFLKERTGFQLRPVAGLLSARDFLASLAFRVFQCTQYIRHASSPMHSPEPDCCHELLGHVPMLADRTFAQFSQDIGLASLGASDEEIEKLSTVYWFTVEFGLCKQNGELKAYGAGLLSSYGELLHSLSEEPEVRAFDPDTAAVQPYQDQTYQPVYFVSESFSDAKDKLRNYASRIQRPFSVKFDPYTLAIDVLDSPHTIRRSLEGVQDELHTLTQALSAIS

Turning to `N[C@@H](Cc1ccc(O)cc1CF)C(=O)O` [2-fluoromethyl-tyrosine, 2-Fluoromethyltyrosine], the NOREPINEPHRINE was found to be 124.9 ± 11.4 ng/g.

`CC(N)(Cc1ccc(O)cc1)C(=O)O` (stereo not drawn) [α-methyl-p-tyrosine] came in with an NOREPINEPHRINE of 115.7 ± 18.6 ng/g.

The values are drawn from patent publication EP0451422A1, “Pharmaceutically active fluoromethyltyrosine compounds” (MERRELL DOW PHARMACEUTICALS INC., priority 1990, dated 1991).
